pKi: −log10 of the molar value.
Tests used:
[1] = test system: citric acid-induced cough in guinea pigs; assay: In vivo citric acid-induced cough in guinea pigs (whole body plethysmograph); conditions: for cough incubation period: p<0.05 vs saline control (232 seconds)
Procedure: As depicted in FIG. 1, cough induction is conducted by placing guinea pigs into a whole body plethysmograph (WBP) equipped with a Aeroneb™ vibrating mesh nebulizer, and including pressure transducers and detection equipment (EMKA technologies). A primary microphone is supplied (EMKA Technologies) for acoustic confirmation of cough frequency in the form of a digital trace using the EMKA software.
A secondary microphone (T1 True Wireless Earphone, QCY®) also is placed in the chamber and connected to a smartphone via Bluetooth to enable the observers to hear the audible sounds during the test. A bias flow rate of 2 L/min is used to continuously draw either atmospheric air (during the fresh air period) or aerosolized citric acid from the nebulizer into the WBP and expel it out through an exhaust pipe. Chamber pressure in the WBP is set to be between −10 to −30 Pa relative to ambient pressure.
Prior to the citric acid challenge, the guinea pigs are administered (intraperitoneal injection) with vehicle control, positive control or test compound (where applicable) with different dosage (Table 2) and placed individually into the WBP for at least 5 minutes in order to habituate.
The procedure was as follows: Injection→mice in box having citric acid for 10 mins (counting the cough)→box then fill with air for 5 mins (counting the cough)→mice move to recovery cage.
Appropriate concentration of citric acid is used to generate aerosol and deliver to WBP for 10 minutes with constant recording of pressure measurements. The mean concentration of citric acid was 1283.1±137.2 μg/L. Upon completion of citric acid challenge, the guinea pig is allowed to recover and continue recording of cough counts for another 5 minutes. Subsequently, the guinea pigs are closely monitored in recovery cage for full recovery from the challenge and that no adverse events were present before returning the animals to its home cage. Cough counts (CCnt) are recorded over a period of at least 10 mins, starting from citric acid stimulation and cough incubation period (CIP) are defined as the time it takes to cough for the first time after citric acid stimulation.
The cough response during citric acid challenge and post-treatment recovery is carefully monitored using: • continuous pressure monitoring (plethysmography monitoring software) • acoustic confirmation of cough using microphones (primary and secondary) • visual confirmation of cough through posture change.
The data were analysed using Oneway ANOVA (*p<0.05, **p<0.01, ***p<0.001, ****p<0.0001) when compared to saline control, and each column represents Mean±SEM.

human α7 nAChR subtype = molecular target: T1, human α7 nAChR subtype (Homo sapiens, UniProt P36544); assay: biochemical; format: binding
T1 construct: expressed in transfected cells; host or cells: SH-SY5Y cells (membranes)
T1 sequence (P36544 23-502): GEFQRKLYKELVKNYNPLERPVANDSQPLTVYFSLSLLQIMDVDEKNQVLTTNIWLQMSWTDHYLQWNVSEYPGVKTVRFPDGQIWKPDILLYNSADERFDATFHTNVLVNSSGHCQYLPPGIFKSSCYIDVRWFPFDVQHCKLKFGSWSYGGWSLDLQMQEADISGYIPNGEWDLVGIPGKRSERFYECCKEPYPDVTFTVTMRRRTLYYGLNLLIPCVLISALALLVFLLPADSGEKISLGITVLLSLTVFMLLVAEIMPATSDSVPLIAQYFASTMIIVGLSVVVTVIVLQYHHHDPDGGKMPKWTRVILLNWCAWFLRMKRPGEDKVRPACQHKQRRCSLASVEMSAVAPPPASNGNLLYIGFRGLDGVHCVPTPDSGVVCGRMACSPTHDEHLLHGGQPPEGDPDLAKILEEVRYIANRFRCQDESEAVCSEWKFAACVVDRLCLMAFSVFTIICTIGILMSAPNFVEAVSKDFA

Structure (SMILES) | citric acid-induced cough counts (number of coughs) ([1]; high concentration 15 mg/kg intraperitoneal, p<0.05 vs saline control (13 coughs)) | cough incubation period ([1]; high concentration 15 mg/kg intraperitoneal) | citric acid-induced cough counts (number of coughs) ([1]; low concentration 1.5 mg/kg intraperitoneal, p<0.0001 vs saline control (13 coughs)) | cough incubation period ([1]; low concentration 1.5 mg/kg intraperitoneal) | citric acid-induced cough counts (number of coughs) ([1]; medium concentration 5 mg/kg intraperitoneal, p<0.05 vs saline control (13 coughs)) | pKi (human α7 nAChR subtype)
C1=C(c2ccc(-c3ccccc3)nc2)C2CCN(C1)CC2 [4-(6-Phenyl-3-pyridyl)-1-azabicyclo[3.2.2]non-3-ene] | 7 | 491 s | 3 | 504 s | 6 | 6.89
C1=C(c2ccc(-c3ccccc3)nn2)C2CCN(C1)CC2 [4-(6-Phenylpyridazin-3-yl)-1-azabicyclo[3.2.2]non-3-ene] |  |  |  |  |  | 6.49

— patent US20250268910A1 (priority 2022, published 2025)
